Measured values: US10500249B2, “Compositions and methods for preventing or treating diseases, conditions, or processes characterized by aberrant fibroblast proliferation and extracellular matrix deposition” (MOERAE MATRIX, INC., priority 2014, dated 2019)
Entries after “also recorded” stand apart in the source; their conditions may differ. Ends that are not written are not given here.

Legend:
[1] = test system: bleomycin-induced lung fibrosis; experiment: Bleomycin mouse model of pulmonary fibrosis (prevention model); format: in vivo, C57BL/6 mice; settings: for collagen accumulation (Masson's Trichrome staining) / fibrotic loci formation / lung fibrosis (H&E staining): daily day 7 to 21 post bleomycin
Procedure: (§1) A mouse model of pulmonary fibrosis was generated by administering 0.025 U of bleomycin/PBS intratracheally to C57BL/6 mice. […] At 21 day post bleomycin delivery (for prevention model) or 28 post bleomycin delivery (for treatment model), groups of mice were sacrificed with a sodium pentobarbital injection (120 mg/kg) and the chest cavity was opened. The right mainstem bronchus was ligated and the right lung was removed. The trachea was cannulated and the left lung was perfused with 4% formaldehyde at 21 cm H2O pressure. The tissue blocks then were embedded in paraffin, and […] sections were prepared for staining. Sections from each animal were stained with hematoxylin and eosin (H&E) to visualize cells or with Masson's Trichrome staining to highlight collagen deposition. […] Stained sections were mounted onto a labeled glass slide with organic mounting medium.
Briefly, fibrotic loci in the lungs of the mice were induced by delivering intratracheally about 0.025 U of bleomycin (dissolved in PBS) to C57BL/6 mice. […] Briefly, mice were sacrificed with a sodium pentobarbital injection (120 mg/kg) and the chest cavity was opened. The right mainstem bronchus was ligated and the right lung was removed. The trachea was cannulated and the left lung was perfused with 4% formaldehyde at 21 cm H2O pressure. The tissue blocks then were embedded in paraffin, and […] sections were prepared, and stained with hematoxylin and eosin (H&E; for pathological examination) or Masson's Trichrome (for collagen staining)
Next, total collagen levels in the lungs of the bleomycin-injured mice (FIG. 12) were analyzed quantitatively by computing a constant conversion factor (7.5) for collagen from hydroxyproline concentrations (Neuman R. and Logan M, J Biol Chem., 186(2):549-56, 1950, incorporated by reference).
Next, the effect of increasing doses of MK2 peptide inhibitors on collagen deposition was examined in vivo using the bleomycin mouse model of idiopathic pulmonary fibrosis (prevention model). Briefly, C57-BL/6 mice were subjected to bleomycin injury at day 0.

[2] = test system: bleomycin-induced lung fibrosis; experiment: Bleomycin mouse model of pulmonary fibrosis (treatment model); format: in vivo, C57BL/6 mice; settings: for collagen deposition (hydroxyproline assay, whole left lung): day 28 post bleomycin; for lung scarring, histology (H&E and Masson's blue trichrome): daily day 14 to 28 post bleomycin
Procedure: as §1
The classic bleomycin model, as depicted in FIG. 10, has been used widely in the literature in the pre-fibrotic stage to test efficacy of any intervention.
More specifically, fibrotic loci in the lungs were induced by delivering intratracheally about 0.025 U of bleomycin (dissolved in PBS) to C57BL/6 mice. […] Mice were sacrificed with a sodium pentobarbital injection (120 mg/kg) and the chest cavity was opened. The right mainstem bronchus was ligated and the right lung is removed. The trachea was cannulated and the left lung was perfused with 4% formaldehyde at 21 cm H2O pressure. The tissue blocks then were embedded in paraffin, and […] sections were prepared, and stained with hematoxylin and eosin (H&E; for pathological examination) or Masson's Trichrome (for collagen staining)
Next, collagen deposition was determined quantitatively by using the standard hydroxyproline assay with whole left lung. Total collagen (soluble and insoluble) deposition was assessed by analyzing hydroxyproline concentrations in murine lungs day 28 post bleomycin injury.

splenic T cells = experiment: Autologous mixed lymphocyte reaction, splenic T cells of bleomycin mice; format: in vivo, C57-BL/6 mice
Source text: Recent studies highlighted a key role for T lymphocytes in bleomycin-induced fibrosis (Wilson, M. et al., The Journal of Experimental Medicine, 207(3): 535-552, 2010). […] Specifically, the ability of C57BL/6 purified antigen-presenting cells to induce proliferation in C57BL/6 T lymphocytes was examined in the assay.
C57-BL/6 mice were subjected to bleomycin injury at day 0. […] Splenic T cells were isolated and cultured alone or in the presence of autologous antigen presenting cells (APCs from C57-BL/6 mice) or stimulated with antibodies against CD3 (α-CD3) for 48 h. The cells then were radiolabeled with […] thymidine for 16 h and assessed for proliferation rates.

[3] = test system: phospho-Thr^334-MAPKAPK2 (activated MK2); experiment: Activated MK2 immunostaining of lung sections, bleomycin treatment model; format: in vivo, C57-BL/6 mice; settings: day 14 to 28
Source text: (§2) Briefly, C57-BL/6 mice were subjected to bleomycin injury at day 0. […] Formalin-fixed lung tissue sections were immunostained against phospho-Thr^334 MK2. Control staining was with biotinylated secondary IgG antibody. Streptavidin-conjugated horseradish peroxidase was used with 3,3′-diaminobenzidene as substrate and nuclei was counterstained with hematoxylin.

TNF-α = experiment: Plasma cytokine level, bleomycin treatment model; format: in vivo, mouse; settings: 24 hours after final administration
MAPKAP-K2 (h) = MAPKAP-K2 (h) (Homo sapiens, UniProt P49137); experiment: Kinase Profiling Assay; format: biochemical; settings: read-out: inhibition of kinase activity of MK2
Procedure: (§3) Every kinase activity measurement was conducted in duplicate.
(§4) Specifically, in these assays, a positively charged substrate is phosphorylated with a radiolabeled phosphate group from an ATP if the kinase is not inhibited by an inhibitor peptide. The positively charged substrate then is attracted to a negatively charged filter membrane, quantified with a scintillation counter, and compared to a 100% activity control.
(§5) In addition to determining the IC50 of the compound, the specificity of MK2 inhibitory peptides was assessed by examining activities of all 266 human kinases available for testing in the Millipore kinase profiling service (Table 1).

MAPKAP-K3 (h) = MAPKAP-K3 (h) (Homo sapiens, UniProt Q16644); experiment: Kinase Profiling Assay; format: biochemical; settings: read-out: inhibition of kinase activity of MK3
Procedure: as §3, §4, §5

TrkB (h) = TrkB (h) (Homo sapiens, UniProt Q16620); experiment: Kinase Profiling Assay; format: biochemical; settings: read-out: inhibition of kinase activity of TrkB
Procedure: as §3, §4, §5

p70S6K (h) = target: T1, p70S6K (h) (Homo sapiens, UniProt P23443); experiment: Kinase Profiling Assay; format: biochemical
T1 construct: purchased Millipore
Procedure: as §3, §4, §5

MLCK (h) = experiment: Kinase Profiling Assay; format: biochemical, human; settings: 100 μM
Procedure: as §3, §4, §5

SGK (h) = experiment: Kinase Profiling Assay; format: biochemical, human; settings: 100 μM
Procedure: as §3, §4, §5

IL-6 = experiment: Plasma cytokine level, bleomycin treatment model; format: in vivo, mouse; settings: 24 hours after final administration
[4] = test system: alpha-smooth muscle actin (α-SMA); experiment: α-SMA immunostaining of lung sections, bleomycin treatment model; format: in vivo, C57-BL/6 mice; settings: day 14 through 28
Source text: as §2, with “C57-BL/6” for “Briefly, C57-BL/6”, “α-SMA.” for “phospho-Thr^334 MK2.”, “hematoxylin. Original magnifications: 20×” for “hematoxylin.”

[5] = test system: human fetal lung fibroblasts (IMR-90), α-SMA; experiment: TGF-β-induced myofibroblast activation, α-SMA immunoblot; format: cell-based; settings: 1 h pre-treatment, then TGF-β1 (2 ng/ml) 48 h
Source text: Cell lysates were immunoblotted against antibodies for α-SMA (a marker for myofibroblast activation) and GAPDH (loading control).

[6] = test system: human fetal lung fibroblasts (IMR-90), fibronectin; experiment: TGF-β-mediated fibronectin expression; format: cell-based; settings: 1 h pre-treatment, then TGF-β1 (2 ng/ml) 72 h
Procedure: Fibronection was measured as secreted fragments in the conditioned media. Equal amounts (14 μg) of total proteins from the conditioned media were loaded in each lane.

T1 sequence (P23443 whole entry): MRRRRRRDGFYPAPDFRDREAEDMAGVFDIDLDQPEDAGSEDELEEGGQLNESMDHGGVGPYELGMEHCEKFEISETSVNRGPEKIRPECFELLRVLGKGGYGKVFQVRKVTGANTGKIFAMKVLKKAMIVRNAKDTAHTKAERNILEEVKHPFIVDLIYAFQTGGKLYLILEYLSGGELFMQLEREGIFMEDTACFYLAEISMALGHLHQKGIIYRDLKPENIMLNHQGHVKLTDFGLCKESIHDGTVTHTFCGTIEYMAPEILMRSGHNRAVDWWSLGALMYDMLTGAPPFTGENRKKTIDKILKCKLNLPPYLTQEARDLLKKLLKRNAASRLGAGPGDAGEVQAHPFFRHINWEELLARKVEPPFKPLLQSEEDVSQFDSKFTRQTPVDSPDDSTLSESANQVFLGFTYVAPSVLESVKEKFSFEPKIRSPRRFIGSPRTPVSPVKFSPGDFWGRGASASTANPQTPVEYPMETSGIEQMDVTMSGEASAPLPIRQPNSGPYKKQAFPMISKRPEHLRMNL
TrkB (h), sequence (Q16620 32-822): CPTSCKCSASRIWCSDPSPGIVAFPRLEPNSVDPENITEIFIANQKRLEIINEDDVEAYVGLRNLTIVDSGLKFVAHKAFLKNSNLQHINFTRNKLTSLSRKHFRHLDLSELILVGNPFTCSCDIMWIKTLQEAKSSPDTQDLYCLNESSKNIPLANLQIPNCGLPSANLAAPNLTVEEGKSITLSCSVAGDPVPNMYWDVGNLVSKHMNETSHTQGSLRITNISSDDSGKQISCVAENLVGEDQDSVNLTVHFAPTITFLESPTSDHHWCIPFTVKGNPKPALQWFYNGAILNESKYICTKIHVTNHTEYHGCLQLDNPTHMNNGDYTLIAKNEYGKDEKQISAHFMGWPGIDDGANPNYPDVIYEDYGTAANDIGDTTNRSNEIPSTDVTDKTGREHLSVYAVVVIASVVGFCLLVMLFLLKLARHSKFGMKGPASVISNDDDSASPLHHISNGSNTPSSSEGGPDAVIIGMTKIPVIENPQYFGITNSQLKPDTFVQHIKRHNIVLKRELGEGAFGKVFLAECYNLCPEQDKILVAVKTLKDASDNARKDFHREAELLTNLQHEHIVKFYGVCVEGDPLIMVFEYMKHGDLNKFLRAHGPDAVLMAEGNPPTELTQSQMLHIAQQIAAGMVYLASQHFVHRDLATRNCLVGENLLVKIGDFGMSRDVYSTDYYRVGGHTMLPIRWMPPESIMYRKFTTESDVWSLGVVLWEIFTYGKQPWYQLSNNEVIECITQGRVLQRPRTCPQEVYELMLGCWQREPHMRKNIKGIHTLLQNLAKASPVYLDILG
MAPKAP-K3 (h), sequence (Q16644 whole entry): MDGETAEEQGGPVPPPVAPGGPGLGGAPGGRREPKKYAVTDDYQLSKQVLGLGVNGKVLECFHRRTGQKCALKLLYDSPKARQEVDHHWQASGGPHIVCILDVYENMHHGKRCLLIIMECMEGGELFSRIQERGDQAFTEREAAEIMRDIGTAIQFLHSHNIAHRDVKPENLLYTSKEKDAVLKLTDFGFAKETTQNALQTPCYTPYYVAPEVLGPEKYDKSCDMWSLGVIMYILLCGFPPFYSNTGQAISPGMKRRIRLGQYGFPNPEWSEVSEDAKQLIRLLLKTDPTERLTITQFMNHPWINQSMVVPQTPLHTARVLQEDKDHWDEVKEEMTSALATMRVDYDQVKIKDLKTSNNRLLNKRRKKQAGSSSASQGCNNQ
MAPKAP-K2 (h), sequence (P49137 whole entry): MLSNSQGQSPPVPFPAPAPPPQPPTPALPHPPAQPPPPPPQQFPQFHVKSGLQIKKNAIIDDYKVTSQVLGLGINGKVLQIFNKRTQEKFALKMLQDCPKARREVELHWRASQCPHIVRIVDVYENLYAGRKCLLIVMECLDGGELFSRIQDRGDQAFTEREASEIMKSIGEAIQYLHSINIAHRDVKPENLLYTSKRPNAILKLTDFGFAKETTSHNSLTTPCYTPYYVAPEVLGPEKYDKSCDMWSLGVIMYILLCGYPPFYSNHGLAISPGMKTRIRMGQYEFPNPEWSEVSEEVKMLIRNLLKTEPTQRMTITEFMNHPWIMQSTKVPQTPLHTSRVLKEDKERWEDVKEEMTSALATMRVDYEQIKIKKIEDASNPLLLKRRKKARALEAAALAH

## YARAAARQARAKALARQLGVAA [MMI-0100]
[1]; 25, 50 or 75 μg/kg daily IP, day 7 through day 21
  collagen levels in the lung (Masson's blue trichrome staining), dose response: prevents fibrosis due to bleomycin injury in a dose-dependent manner; also recorded: decrease in collagen levels
[1]; intraperitoneal
  collagen accumulation (Masson's Trichrome staining): reduced collagen accumulation
  fibrotic loci formation / lung fibrosis (H&E staining): protects against bleomycin-induced lung fibrosis; also recorded: significantly reduced development of fibrotic loci formation
[1]; nebulization
  collagen accumulation (Masson's Trichrome staining): reduced collagen accumulation
  fibrotic loci formation / lung fibrosis (H&E staining): protects against bleomycin-induced lung fibrosis; also recorded: significantly reduced development of fibrotic loci formation
[2]; 50 μg/kg/day IP from day 14
  collagen deposition (hydroxyproline assay, whole left lung): arrests significant collagen deposition; also recorded: significantly arrested further progression of collagen deposition
[2]; 50 μg/kg/day nebulizer from day 14
  collagen deposition (hydroxyproline assay, whole left lung): arrests significant collagen deposition; also recorded: significantly arrested further progression of collagen deposition
[2]; intraperitoneal
  lung scarring, histology (H&E and Masson's blue trichrome): ameliorates bleomycin-induced lung fibrosis; also recorded: rescued
[2]; nebulized
  lung scarring, histology (H&E and Masson's blue trichrome): ameliorates bleomycin-induced lung fibrosis; also recorded: rescued
Splenic T cells; 50 μg/kg/day, day 7 to 21
  toxicity (proliferative response of splenic T cells to α-CD3): no toxicity
Splenic T cells; nebulized, inferred from lack of splenic T cell response
  systemic distribution: little systemic distribution
[3]; 50 μg/kg daily intraperitoneal
  phospho-Thr^334-MAPKAPK2 staining (activated form of MK2) in lung: decreased phospho-Thr^334-MAPKAPK2 staining
[3]; 50 μg/kg daily nebulized
  phospho-Thr^334-MAPKAPK2 staining (activated form of MK2) in lung: as effective as conventional systemic injections in attenuating MK2 activation; also recorded: decreased phospho-Thr^334-MAPKAPK2 staining
TNF-α; intraperitoneal
  plasma level of TNF-α: significantly reduced
TNF-α; nebulized
  plasma level of TNF-α: significantly reduced
MAPKAP-K2 (h)
  inhibition at 100 µM: > 65%
MAPKAP-K3 (h)
  inhibition at 100 µM: > 65%
TrkB (h)
  inhibition at 100 µM: > 65%
p70S6K (h)
  activity at 100 µM: 89%
MLCK (h)
  % activity: 85%
SGK (h)
  % activity: 128%
IL-6; intraperitoneal
  plasma level of IL-6: significantly reduced
IL-6; nebulized
  plasma level of IL-6: significantly reduced
[4]; 50 μg/kg/day intraperitoneal
  level of α-SMA in bleomycin-injured lungs: inhibits myofibroblast alpha-smooth muscle actin (α-SMA) activation; also recorded: significantly attenuated
[4]; 50 μg/kg/day nebulizer
  level of α-SMA in bleomycin-injured lungs: inhibits myofibroblast alpha-smooth muscle actin (α-SMA) activation; also recorded: significantly attenuated
[5]
  protein level of α-smooth muscle actin (α-SMA): effectively prevented myofibroblast activation
[6]
  protein level of fibronectin (secreted fragments in conditioned media): effectively prevented myofibroblast activation
